Data from the supplement of paper PMC12463676, “Small-molecule dissolution of stress granules by redox modulation benefits ALS models” (Nature Chemical Biology, 2025).

Columns and labels:
[1] = compound: NC(=O)CCCCC1CCSS1 [lipoamide]; assay: thermal stability z-score vs DMSO; higher = more thermally stabilized by treatment; settings: HeLa, lipoamide concentration 100 µM
Method: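 Cellular thermal proteome profiling in HeLa cells. Cells were treated with 100 µM lipoamide for 1 h, with or without 1 mM arsenate for a further 1 h, then heated to ten temperatures (37-66.3 °C), and soluble protein was quantified by TMT mass spectrometry relative to 0.1% DMSO controls. The thermal stability score (sum of log2 fold changes minus the abundance score) was transformed to a z-score; mean of n = 3 experiments.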

[2] = compound: O=[As]([O-])(O)O.[K+] [potassium arsenate]; assay: as above; settings: HeLa; arsenate concentration 1 mM
Method: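 Cellular thermal proteome profiling in HeLa cells treated with 1 mM arsenate for 1 h (DMSO pretreatment), heated to ten temperatures (37-66.3 °C). Soluble protein was quantified by TMT mass spectrometry relative to DMSO controls; the thermal stability score was transformed to a z-score; mean of n = 3 experiments.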

[3] = arsenate co-treatment: 1 mM arsenate 1 h
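Further: each temperature applied for 3 min, abundance score taken as mean log2 fold change at the two lowest temperatures, z-score obtained by mean subtraction and division by SD.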

UniProt Q9P2N2, sequence (Q9P2N2 whole entry): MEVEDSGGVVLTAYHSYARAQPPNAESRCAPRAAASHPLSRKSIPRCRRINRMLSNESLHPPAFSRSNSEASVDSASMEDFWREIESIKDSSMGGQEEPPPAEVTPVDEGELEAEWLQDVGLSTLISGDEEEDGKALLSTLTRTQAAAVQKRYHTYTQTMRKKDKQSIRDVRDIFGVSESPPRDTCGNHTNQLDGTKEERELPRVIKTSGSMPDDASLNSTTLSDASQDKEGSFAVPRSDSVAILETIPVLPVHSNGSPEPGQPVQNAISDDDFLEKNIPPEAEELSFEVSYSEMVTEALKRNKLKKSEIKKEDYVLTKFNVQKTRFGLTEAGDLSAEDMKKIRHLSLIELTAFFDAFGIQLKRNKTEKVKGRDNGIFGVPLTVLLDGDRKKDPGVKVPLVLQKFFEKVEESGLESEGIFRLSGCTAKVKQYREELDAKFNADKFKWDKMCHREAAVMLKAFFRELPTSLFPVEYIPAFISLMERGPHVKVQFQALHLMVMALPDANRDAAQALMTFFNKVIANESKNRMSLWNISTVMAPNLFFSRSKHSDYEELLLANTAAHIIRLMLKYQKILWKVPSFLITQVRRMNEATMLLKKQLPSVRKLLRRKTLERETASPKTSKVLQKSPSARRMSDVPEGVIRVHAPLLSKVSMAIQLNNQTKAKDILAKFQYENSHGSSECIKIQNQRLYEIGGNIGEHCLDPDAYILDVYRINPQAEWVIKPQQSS
UniProt Q9NWB6, sequence (Q9NWB6 whole entry): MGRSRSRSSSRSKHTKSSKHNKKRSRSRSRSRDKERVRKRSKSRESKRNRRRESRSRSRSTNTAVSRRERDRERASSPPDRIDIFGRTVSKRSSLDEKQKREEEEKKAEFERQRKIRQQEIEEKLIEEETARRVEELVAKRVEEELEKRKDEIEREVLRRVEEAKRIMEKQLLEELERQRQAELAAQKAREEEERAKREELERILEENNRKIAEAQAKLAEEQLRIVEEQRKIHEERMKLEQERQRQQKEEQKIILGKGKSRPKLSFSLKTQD
UniProt Q14155, sequence (Q14155 whole entry): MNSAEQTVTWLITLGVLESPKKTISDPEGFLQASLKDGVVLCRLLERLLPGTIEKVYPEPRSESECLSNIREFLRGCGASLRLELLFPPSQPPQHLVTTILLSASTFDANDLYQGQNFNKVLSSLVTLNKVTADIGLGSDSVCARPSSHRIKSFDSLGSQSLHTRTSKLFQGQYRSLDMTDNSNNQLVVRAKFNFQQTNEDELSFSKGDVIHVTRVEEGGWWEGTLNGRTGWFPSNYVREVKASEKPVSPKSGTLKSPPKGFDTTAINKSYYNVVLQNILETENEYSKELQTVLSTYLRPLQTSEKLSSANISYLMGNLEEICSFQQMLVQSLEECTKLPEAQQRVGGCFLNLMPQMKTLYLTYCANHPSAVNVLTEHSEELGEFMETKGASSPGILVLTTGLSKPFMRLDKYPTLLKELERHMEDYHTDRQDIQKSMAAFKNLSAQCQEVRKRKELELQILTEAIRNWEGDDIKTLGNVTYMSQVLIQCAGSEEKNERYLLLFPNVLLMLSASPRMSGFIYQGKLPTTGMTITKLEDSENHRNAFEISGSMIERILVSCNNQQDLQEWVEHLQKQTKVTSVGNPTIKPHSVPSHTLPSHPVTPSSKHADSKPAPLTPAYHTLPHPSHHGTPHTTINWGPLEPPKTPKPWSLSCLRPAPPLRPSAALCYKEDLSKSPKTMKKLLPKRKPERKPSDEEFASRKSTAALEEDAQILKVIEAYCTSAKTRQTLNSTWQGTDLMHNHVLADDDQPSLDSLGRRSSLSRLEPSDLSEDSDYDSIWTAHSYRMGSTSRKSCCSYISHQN
UniProt Q8NEU8, sequence (Q8NEU8 whole entry): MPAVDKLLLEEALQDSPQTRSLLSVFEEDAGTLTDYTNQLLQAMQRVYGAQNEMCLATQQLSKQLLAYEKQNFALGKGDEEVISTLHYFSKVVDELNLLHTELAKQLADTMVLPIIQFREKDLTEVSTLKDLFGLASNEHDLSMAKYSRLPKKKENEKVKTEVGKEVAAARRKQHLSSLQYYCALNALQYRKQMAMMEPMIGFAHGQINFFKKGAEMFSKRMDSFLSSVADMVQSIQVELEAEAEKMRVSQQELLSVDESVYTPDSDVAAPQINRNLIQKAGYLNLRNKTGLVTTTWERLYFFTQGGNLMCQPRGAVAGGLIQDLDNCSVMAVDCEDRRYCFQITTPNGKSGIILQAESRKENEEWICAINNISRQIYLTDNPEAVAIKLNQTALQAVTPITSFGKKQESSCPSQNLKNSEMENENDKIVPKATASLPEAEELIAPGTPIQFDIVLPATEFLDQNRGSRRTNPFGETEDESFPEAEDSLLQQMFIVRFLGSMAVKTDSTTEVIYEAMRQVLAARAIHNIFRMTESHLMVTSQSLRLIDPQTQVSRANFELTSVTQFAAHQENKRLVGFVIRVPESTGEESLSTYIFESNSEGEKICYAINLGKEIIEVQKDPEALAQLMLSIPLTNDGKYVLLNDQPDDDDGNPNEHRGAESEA
UniProt Q9NP61, sequence (Q9NP61 whole entry): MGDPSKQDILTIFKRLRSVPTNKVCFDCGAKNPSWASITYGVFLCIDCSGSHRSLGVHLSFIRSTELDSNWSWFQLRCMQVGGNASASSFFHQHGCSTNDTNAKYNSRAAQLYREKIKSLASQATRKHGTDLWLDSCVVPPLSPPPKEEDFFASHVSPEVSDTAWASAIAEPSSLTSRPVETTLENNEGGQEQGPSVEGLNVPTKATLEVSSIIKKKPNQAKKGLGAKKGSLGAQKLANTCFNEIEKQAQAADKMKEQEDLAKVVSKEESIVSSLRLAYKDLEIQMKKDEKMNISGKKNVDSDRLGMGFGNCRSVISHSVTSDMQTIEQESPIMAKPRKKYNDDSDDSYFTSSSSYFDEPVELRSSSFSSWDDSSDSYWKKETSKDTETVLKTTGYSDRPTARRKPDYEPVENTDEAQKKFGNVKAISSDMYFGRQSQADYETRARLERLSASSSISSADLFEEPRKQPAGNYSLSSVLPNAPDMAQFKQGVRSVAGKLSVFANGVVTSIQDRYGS
UniProt Q8N392, sequence (Q8N392 whole entry): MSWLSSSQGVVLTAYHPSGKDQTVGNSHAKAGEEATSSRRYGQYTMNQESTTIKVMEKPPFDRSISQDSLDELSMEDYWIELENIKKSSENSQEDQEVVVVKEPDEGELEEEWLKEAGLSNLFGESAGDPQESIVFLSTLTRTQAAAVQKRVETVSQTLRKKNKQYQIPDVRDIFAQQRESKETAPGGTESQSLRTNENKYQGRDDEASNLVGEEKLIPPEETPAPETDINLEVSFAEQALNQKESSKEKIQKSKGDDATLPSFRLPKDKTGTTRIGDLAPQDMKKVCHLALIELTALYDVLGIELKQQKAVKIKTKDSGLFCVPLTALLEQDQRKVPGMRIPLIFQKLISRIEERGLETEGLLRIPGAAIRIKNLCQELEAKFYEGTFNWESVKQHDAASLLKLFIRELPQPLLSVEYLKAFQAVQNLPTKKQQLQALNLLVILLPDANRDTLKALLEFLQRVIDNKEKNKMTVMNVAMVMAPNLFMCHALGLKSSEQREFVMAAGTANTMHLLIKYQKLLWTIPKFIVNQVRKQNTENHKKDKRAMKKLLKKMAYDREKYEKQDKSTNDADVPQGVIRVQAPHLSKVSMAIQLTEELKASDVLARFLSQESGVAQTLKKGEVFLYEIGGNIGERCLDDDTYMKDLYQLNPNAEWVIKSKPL
UniProt P84085, sequence (P84085 whole entry): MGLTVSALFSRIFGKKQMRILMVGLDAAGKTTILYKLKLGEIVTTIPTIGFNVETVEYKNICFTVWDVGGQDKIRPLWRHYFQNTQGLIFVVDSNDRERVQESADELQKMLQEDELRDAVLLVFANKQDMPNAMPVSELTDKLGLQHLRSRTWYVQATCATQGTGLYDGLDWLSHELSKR
UniProt P52565, sequence (P52565 whole entry): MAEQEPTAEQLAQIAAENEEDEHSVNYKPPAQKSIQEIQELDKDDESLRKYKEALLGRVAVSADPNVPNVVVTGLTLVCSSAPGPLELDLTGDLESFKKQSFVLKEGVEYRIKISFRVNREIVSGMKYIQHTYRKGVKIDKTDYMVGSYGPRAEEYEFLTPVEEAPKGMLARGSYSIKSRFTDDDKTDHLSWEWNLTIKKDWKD
UniProt Q9NRW3, sequence (Q9NRW3 whole entry): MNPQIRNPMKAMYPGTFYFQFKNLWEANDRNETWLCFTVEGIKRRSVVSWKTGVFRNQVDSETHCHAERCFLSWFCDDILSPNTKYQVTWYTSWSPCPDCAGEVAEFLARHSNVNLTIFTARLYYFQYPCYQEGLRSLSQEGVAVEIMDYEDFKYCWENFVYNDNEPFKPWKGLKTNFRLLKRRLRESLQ
UniProt P52566, sequence (P52566 whole entry): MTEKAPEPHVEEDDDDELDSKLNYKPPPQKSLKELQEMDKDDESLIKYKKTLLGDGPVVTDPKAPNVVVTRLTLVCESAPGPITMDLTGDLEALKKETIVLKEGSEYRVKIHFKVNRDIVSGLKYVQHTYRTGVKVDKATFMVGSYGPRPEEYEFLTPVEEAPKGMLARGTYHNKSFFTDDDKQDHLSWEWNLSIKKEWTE
UniProt Q7Z2E3, sequence (Q7Z2E3 whole entry): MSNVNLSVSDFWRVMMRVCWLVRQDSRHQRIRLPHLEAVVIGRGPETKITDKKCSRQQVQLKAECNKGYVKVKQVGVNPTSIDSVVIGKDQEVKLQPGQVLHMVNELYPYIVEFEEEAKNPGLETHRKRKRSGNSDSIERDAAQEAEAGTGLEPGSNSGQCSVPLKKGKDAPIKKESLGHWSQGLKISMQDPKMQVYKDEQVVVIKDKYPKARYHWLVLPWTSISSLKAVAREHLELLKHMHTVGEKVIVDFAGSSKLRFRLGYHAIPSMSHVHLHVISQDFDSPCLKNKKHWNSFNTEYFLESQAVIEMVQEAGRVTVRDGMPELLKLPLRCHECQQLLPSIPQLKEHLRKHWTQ

| Target | thermal stability z-score [1, 3] | thermal stability z-score ([1]; arsenate co-treatment: none) | thermal stability z-score [2] |
| --- | --- | --- | --- |
| APOB (UniProt P04114) | -0.228 | 0.0547 | -0.328 |
| APOBEC3C (UniProt Q9NRW3) | -0.418 | -0.453 | -0.53 |
| APOL2 (UniProt Q9BQE5) | -0.399 | 0.15 | 0.589 |
| APOO (UniProt Q9BUR5) | 0.803 | 0.64 | 0.23 |
| APOOL (UniProt Q6UXV4) | 0.908 | 0.782 | 0.748 |
| APP (UniProt P05067) | -1.82 | -1.75 | 0.137 |
| APPBP2 (UniProt Q92624) | -0.18 | 0.0712 | -0.115 |
| APPL1 (UniProt Q9UKG1) | -0.333 | 0.107 | 1.2 |
| APPL2 (UniProt Q8NEU8) | 0.0353 | -0.132 | -0.0173 |
| APRT (UniProt P07741) | 0.387 | 0.419 | 0.345 |
| APTX (UniProt Q7Z2E3) | 0.0235 | 0.0974 | -0.253 |
| AQR (UniProt O60306) | 0.37 | 0.297 | -0.643 |
| ARAF (UniProt P10398) | -0.299 | -0.252 | -0.275 |
| ARAP1 (UniProt Q96P48) | -0.133 | -0.0899 | -0.345 |
| ARCN1 (UniProt P48444) | 0.128 | -0.0303 | 0.383 |
| ARF4 (UniProt P18085) | -0.409 | -0.09 | -0.609 |
| ARF5 (UniProt P84085) | -0.258 | -0.517 | -0.187 |
| ARF6 (UniProt P62330) | 0.394 | 0.237 | 0.683 |
| ARFGAP1 (UniProt Q8N6T3) | -0.303 | 0.304 | 0.357 |
| ARFGAP2 (UniProt Q8N6H7) | -0.346 | -0.143 | 0.0541 |
| ARFGAP3 (UniProt Q9NP61) | 0.116 | 0.294 | 0.0267 |
| ARFGEF1 (UniProt Q9Y6D6) | -0.0608 | -0.273 | -0.154 |
| ARFGEF2 (UniProt Q9Y6D5) | -0.376 | -0.0733 | 0.0926 |
| ARFIP1 (UniProt P53367) | 0.444 | 0.144 | 0.0115 |
| ARFIP2 (UniProt P53365) | -0.0772 | -0.0355 | 0.108 |
| ARFRP1 (UniProt Q13795) | 0.241 | 0.279 | -0.148 |
| ARGLU1 (UniProt Q9NWB6) | 0.406 | 0.211 | -0.658 |

| Target | thermal stability z-score [1, 3] | thermal stability z-score ([1]; arsenate co-treatment: none) | thermal stability z-score [2] |
| --- | --- | --- | --- |
| ARHGAP1 (UniProt Q07960) | -1.02 | -0.692 | -0.115 |
| ARHGAP4 (UniProt P98171) | -0.00218 | 0.000585 | 0.0513 |
| ARHGAP5 (UniProt Q13017) | 0.182 | -0.703 | -0.265 |
| ARHGAP10 (UniProt A1A4S6) | 0.133 | 0.268 | 0.226 |
| ARHGAP12 (UniProt Q8IWW6) | -0.578 | -0.344 | 0.668 |
| ARHGAP17 (UniProt Q68EM7) | 0.0634 | 0.493 | 0.874 |
| ARHGAP18 (UniProt Q8N392) | 1.13 | 1.59 | 1.21 |
| ARHGAP21 (UniProt Q5T5U3) | -0.57 | -0.749 | -1.3 |
| ARHGAP27 (UniProt Q6ZUM4) | -0.103 | -0.156 | -0.309 |
| ARHGAP28 (UniProt Q9P2N2) | -0.114 | -0.103 | -0.0848 |
| ARHGAP29 (UniProt Q52LW3) | -0.215 | -0.998 | -1.28 |
| ARHGAP35 (UniProt Q9NRY4) | -0.512 | -0.145 | 0.128 |
| ARHGDIA (UniProt P52565) | 0.784 | 0.465 | 0.318 |
| ARHGDIB (UniProt P52566) | 0.0327 | -0.0579 | 0.0843 |
| ARHGEF1 (UniProt Q92888) | -0.381 | -0.242 | 0.0617 |
| ARHGEF2 (UniProt Q92974) | -0.182 | 0.0779 | 0.444 |
| ARHGEF5 (UniProt Q12774) | -0.685 | 0.596 | 0.214 |
| ARHGEF7 (UniProt Q14155) | -0.856 | -0.54 | -0.0377 |
| ARHGEF10 (UniProt O15013) | -0.746 | -0.324 | 0.964 |
| ARHGEF11 (UniProt O15085) | -0.0428 | 0.152 | 0.14 |
| ARHGEF12 (UniProt Q9NZN5) | -0.125 | -0.261 | 0.192 |
| ARHGEF16 (UniProt Q5VV41) | 0.251 | -0.0771 | -0.201 |
| ARHGEF18 (UniProt Q6ZSZ5) | -0.0633 | -0.00829 | -0.0508 |
| ARID1A (UniProt O14497) | 0.0489 | -0.0643 | -0.205 |
| ARID2 (UniProt Q68CP9) | 0.136 | 0.254 | -0.234 |
| ARID4B (UniProt Q4LE39) | 0.0389 | 0.0738 | -0.419 |
| ARIH1 (UniProt Q9Y4X5) | -0.0195 | -0.0439 | -0.568 |
